# What was measured:
# [1] = Physicochemical properties of VCR and TPT
# Text: The need to develop one liposome that includes two drugs at a specific predefined mole ratio required optimization of the loading conditions and “crosstalk” with the drugs. For this, physiochemical characterization of the two drugs is required.
# in vivo = settings: nude, mouse, plasma, iv
# [2] = Pharmacokinetics in tumor-bearing nude mice after i.v. administration; settings: eight hours post injection, based on AUC value
# [3] = In vitro release of drugs from nanoliposomes in adult bovine serum at 37° C.; assay type: in vitro ADME; settings: drug encapsulated in nSSL
# Method: For studying the effect of biological fluids, drug loaded nSSLs were incubated up to 96 h at 37° C. in adult bovine serum (Biological Industries, Beit Haemek, Israel).
# [4] = Maximum tolerated dose (MTD); design: species or system mice; settings: mouse, in vivo; ≦15% body weight loss nadir lasting ≦2 days
# Method: The MTD is determined in clinical trials by testing increasing doses on different groups of people until the highest dose with acceptable side effects is found. For each drug, the MTD as determined in clinical trials is then available via publicly available sources such as SciFinder which is the On Line search engine of The American Chemical Society for various information including MTD (in animals as well as in humans). […] In this context, the “MTD ratio” between two drugs is the ratio between the MTD determined for each drug.
# Tumor volume, survival, and body weight were monitored 2-3 times per week.
# [5] = system: Daoy medulloblastoma cells; assay: MTT cytotoxicity and median-effect (CI) analysis, Daoy; settings: for Fractional kill (fa): 72 h MTT; for Dx (Dx1, Dx2, Dx12: dose for effect level fa): doses of Table 1 (ng/ml);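 on all read-outs here: drugs applied at fixed ratios over eight concentrations for 72 h, survival expressed against untreated control wells, affected fraction (fa) derived per well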
# Method: Human medulloblastoma (Daoy) cells, colon cancer (SW480) cells and neuroblastoma (NB-EB) cells were exposed to fixed ratios at eight concentrations of drugs for 72 hours along the profile of the most cytotoxic drug. Viable cells were quantified using standard MTT assay (T. Mosmann, Rapid colorimetric assay for cellular growth and survival: application to proliferation and cytotoxicity assays. J Immunol Methods 65(1-2) (1983) 55-63).
# Test data were converted to a percentage mean cell survival value relative to untreated control wells. The fraction of affected cells (fa) was subsequently determined for each well.
# The median effect analysis uses the combination index (CI) value as a quantitative indicator of the degree of synergy or antagonism. Using this analysis method, CI=1.0 reflects additive activity, CI>1 signifies antagonism, and CI<1.0 indicates synergy.
# Firstly, in vitro cytotoxicity of VCR, TPT and their combinations was evaluated using the median-effect analysis of Chou et al [T. C. […] The selection of this drug interaction analysis method was based on its suitability for assessing whether drugs interact synergistically (CI<1.0), additively (CI f 1.0), or antagonistically (CI>1.0) as a function of drug concentration for different fixed drug/drug ratios.
# SW480 (colon) tumors = assay: Efficacy against SW480 (colon) tumors in nude mice, Kaplan-Meier; settings: SW480 tumors s.c., i.v. at days 17, 23 and 29
# Method: Nine mice were treated in each group. All mice received injections through the tail vain at days 17, 23 and 29.
# Approximately 4 million Daoy and SW480 tumor cells were inoculated subcutaneously (s.c.) in the back of 5 weeks old NUDE-Hsd:Athymic mice. Tumor weights were determined according to the equation (length×width^2)/2 using direct caliper measurements (D. M. Euhus, C. Hudd, M. C. LaRegina, F. E. Johnson, Tumor measurement in the nude mouse. J Surg Oncol 31(4) (1986) 229-234; M. M. Tomayko, C. P. Reynolds, Determination of subcutaneous tumor size in athymic (nude) mice. Cancer Chemother Pharmacol 24(3) (1989) 148-154).
# The statistical significance between different treatment groups was determined using Mood's median test [A. M. Mood, Introduction to the theory of statistics, McGraw-Hill, New York, 1950.].
Molecule,pKa [1],"solubility ([1]; pH 6, aqueous buffer) [µM]","solubility ([1]; pH 8, aqueous buffer) [µM]",AUC (in vivo) [ng·h/mL],Cmax (in vivo) [ng/mL],MRT (in vivo) [h],clearance (in vivo) [mL/min],half-life (in vivo) [h],release kinetics order [3],"m (slope, Hill-type coefficient of the dose-effect curve) ([5]; Daoy cells)","Dx (Dx1, Dx2, Dx12: dose for effect level fa) ([5]; fa 0.1)","Dx (Dx1, Dx2, Dx12: dose for effect level fa) ([5]; fa 0.2)","Dx (Dx1, Dx2, Dx12: dose for effect level fa) ([5]; fa 0.3)","Dx (Dx1, Dx2, Dx12: dose for effect level fa) ([5]; fa 0.4)","Dx (Dx1, Dx2, Dx12: dose for effect level fa) ([5]; fa 0.5)","Dx (Dx1, Dx2, Dx12: dose for effect level fa) ([5]; fa 0.6)","Dx (Dx1, Dx2, Dx12: dose for effect level fa) ([5]; fa 0.7)","Dx (Dx1, Dx2, Dx12: dose for effect level fa) ([5]; fa 0.8)","Dx (Dx1, Dx2, Dx12: dose for effect level fa) ([5]; fa 0.9)",also measured
"CC[C@@]1(O)C(=O)OCc2c1cc1n(c2=O)Cc2cc3c(CN(C)C)c(O)ccc3nc2-1 [Topotecan (TPT), Topotecan]",7.65,3600,200,2700 ± 910,3980 ± 1040,0.6 ± 0.07,1.28,1.03,,,,,,,,,,,,Non-polar/polar surface area ratio [1]: 2.81; lactone ratio of TPT [2]: 9%
"CC[C@]1(O)C[C@H]2CN(CCc3c([nH]c4ccccc34)[C@@](C(=O)OC)(c3cc4c(cc3OC)N(C=O)[C@H]3[C@@](O)(C(=O)OC)[C@H](OC(C)=O)[C@]5(CC)C=CCN6CC[C@]43[C@@H]65)C2)C1 [Vincristine (VCR), Vincristine]",7.64,300,10,2510 ± 460,1370 ± 340,1.73 ± 0.3,0.273,2.09,zero-order kinetics,m: 1.926,1.76,2.68,3.55,4.46,5.50,6.79,8.55,11.31,17.22,"logP [1]: 2.97; logD ([1]; pH 6): 1.2; logD ([1]; pH 8): 2.81; MTD [4]: 1.5 mg/kg; IC50 ([5]; Homo sapiens, Daoy, read-out: Dm (dose required to produce the median-effect)): 5.51 ng/mL; Log [1/(1/fa − 1)] ([5]; dose 1 ng/ml): −1.43; Fractional kill (fa) ([5]; dose 1 ng/ml): 0.04; Log [1/(1/fa − 1)] ([5]; dose 2 ng/ml): −0.93; Fractional kill (fa) ([5]; dose 2 ng/ml): 0.11; Log [1/(1/fa − 1)] ([5]; dose 4 ng/ml): −0.36; Fractional kill (fa) ([5]; dose 4 ng/ml): 0.30; Log [1/(1/fa − 1)] ([5]; dose 8 ng/ml): 0.65; Fractional kill (fa) ([5]; dose 8 ng/ml): 0.82; Log [1/(1/fa − 1)] ([5]; dose 24 ng/ml): 1.07; Fractional kill (fa) ([5]; dose 24 ng/ml): 0.92"
Topotecan [Topotecan (TPT)],,,,,,,,,first-order kinetics followed by zero-order kinetics,m: 1.663,21.67,35.29,48.80,63.65,81.23,103.66,135.22,186.99,304.53,"Dm (dose required to produce the median-effect) ([5]; Daoy cells, […]): Dm: 81.23 ng/ml; Log [1/(1/fa − 1)] ([5]; dose 40 ng/ml): −0.64; Fractional kill (fa) ([5]; dose 40 ng/ml): 0.18; Log [1/(1/fa − 1)] ([5]; dose 60 ng/ml): −0.08; Fractional kill (fa) ([5]; dose 60 ng/ml): 0.46; Log [1/(1/fa − 1)] ([5]; dose 80 ng/ml): 0.04; Fractional kill (fa) ([5]; dose 80 ng/ml): 0.52; Log [1/(1/fa − 1)] ([5]; dose 200 ng/ml): 0.59; Fractional kill (fa) ([5]; dose 200 ng/ml): 0.80; Log [1/(1/fa − 1)] ([5]; dose 400 ng/ml): 1.15; Fractional kill (fa) ([5]; dose 400 ng/ml): 0.93; therapeutic efficacy (Kaplan-Meier, tumor ≧1000 mg as endpoint) (SW480 (colon) tumors; listed as Free TPT): inferior to the liposomal formulations; therapeutic efficacy (Kaplan-Meier, tumor ≧1000 mg as endpoint) (SW480 (colon) tumors; listed as free TPT): more efficacious for colon cancer"

# Reference: patent US20130052259A1, “LIPOSOMES COMPRISING AMPHIPATHIC DRUGS AND METHOD FOR THEIR PREPARATION” (priority 2010, published 2013)
